In ChEMBL document CHEMBL4229519, “Design, synthesis, and activity evaluation of novel erythropoietin mimetic peptides” (Bioorg Med Chem Lett, 2018) one finds EC50, Activity and Ratio data, which are given here for seven compounds.

Bridge positions count the residues as written; N and C are the ends. Square brackets hold non-standard residues; d marks the D form. Peptide text beside a SMILES is read from it. 1Nal = N[C@@H](Cc1cccc2ccccc12)C(=O)O; Cit = NC(=O)NCCC[C@H](N)C(=O)O; NMeA = CN[C@@H](C)C(=O)O; Sar = CNCC(=O)O

In data set [1] the target is T1, Erythropoietin receptor (Homo sapiens, UniProt P19235).
T1 sequence (P19235 whole entry): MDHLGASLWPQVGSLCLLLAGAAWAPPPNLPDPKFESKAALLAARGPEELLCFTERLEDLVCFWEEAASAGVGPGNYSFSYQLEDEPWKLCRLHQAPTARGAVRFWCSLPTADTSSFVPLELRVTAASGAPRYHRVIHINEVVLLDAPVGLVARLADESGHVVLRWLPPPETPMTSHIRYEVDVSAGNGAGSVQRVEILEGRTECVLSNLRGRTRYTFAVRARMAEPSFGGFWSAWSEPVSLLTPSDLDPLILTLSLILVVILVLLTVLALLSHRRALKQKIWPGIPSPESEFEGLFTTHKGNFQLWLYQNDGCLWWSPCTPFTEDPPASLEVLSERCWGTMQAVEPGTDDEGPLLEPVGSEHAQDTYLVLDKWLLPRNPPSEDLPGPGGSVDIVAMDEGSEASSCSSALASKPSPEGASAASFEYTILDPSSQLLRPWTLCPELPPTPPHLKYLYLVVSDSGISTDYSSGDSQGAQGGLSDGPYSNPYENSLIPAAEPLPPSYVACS
The experiment in a line: Agonist activity at EPO receptor in human TF1 cells assessed as induction of cell proliferation after 48 hrs by MTT assay. It counts as cell-based. A general note: Formazan colour is commonly taken as a measure of viable cells.

For data set [2], the system named is Mus musculus. The experiment in a line: Toxicity in mouse assessed as increase in body weight at 2.1 umol/kg, sc administered once daily for 7 consecutive days measured on day 7 during compound dosing relative to control. It counts as organism-based. Conditions: in vivo; call rule not given here.
The subject of data set [3] is Mus musculus. Put plainly: Toxicity in mouse assessed as body weight at 2.1 umol/kg, sc administered once daily for 7 consecutive days measured on day 1 during compound dosing (reference value: 24.5 +/- 1.1 g). Conditions: in vivo. The data set is classed as organism-based.
Data set [4] has as its system Mus musculus. The experiment in a line: Antianemic activity in mouse assessed as reticulocyte level at 2.1 umol/kg, sc administered once daily for 7 consecutive days (reference value: 0.46 +/- 0.11 10^12/L). The data set is classed as functional.
Data set [5] relates to Mus musculus. The experiment in a line: Toxicity in mouse assessed as increase in body weight at 2.1 umol/kg, sc administered once daily for 7 consecutive days measured on day 3 during compound dosing relative to control. Conditions: in vivo. The data set is classed as organism-based.
The test system of data set [6] is Mus musculus. The experiment in a line: Toxicity in mouse assessed as increase in body weight at 2.1 umol/kg, sc administered once daily for 7 consecutive days measured on day 5 during compound dosing relative to control. It counts as organism-based. Conditions: in vivo.
Data set [7] has as its system Mus musculus. The experiment in a line: Antianemic activity in mouse assessed as hemoglobin level at 2.1 umol/kg, sc administered once daily for 7 consecutive days (reference value: 135.1 +/- 9.5 g/L). It counts as functional.
Data set [8] relates to Mus musculus. The experiment in a line: Antianemic activity in mouse assessed as hematocrit by measuring ratio of RBC volume to total blood volume at 2.1 umol/kg, sc administered once daily for 7 consecutive days (reference value: 0.476 +/- 0.024). It counts as functional.
Data set [9] deals with Mus musculus. The experiment in a line: Effect on WBC level in mouse at 2.1 umol/kg, sc administered once daily for 7 consecutive days (reference value: 5.84 +/- 1.43 10^9/L). The data set is classed as ADME, organism-based. Conditions: in vivo.
For data set [10], the system named is Mus musculus. The experiment in a line: Antianemic activity in mouse assessed as RBC level at 2.1 umol/kg, sc administered once daily for 7 consecutive days (reference value: 8.74 +/- 0.58 10^12/L). It counts as functional.

For `CC[C@H](C)[C@@H]1NC(=O)[C@@H]2CCCN2C(=O)CNC(=O)[C@H](CCSC)NC(=O)[C@H](Cc2cnc[nH]2)NC(=O)[C@@H](NC(=O)[C@@H](C)NC(=O)[C@H](Cc2ccc(O)cc2)NC(=O)[C@H](CC(C)C)NC(=O)CNC(=O)CNC(C)=O)CSSC[C@@H](C(=O)N[C@@H](CCC(N)=O)C(=O)N2CCC[C@H]2C(=O)N[C@@H](CC(C)C)C(=O)N[C@@H](CCCNC(=N)N)C(=O)N(C)CC(=O)N[C@@H](CCCCN)C(N)=O)NC(=O)[C@H](C(C)C)NC(=O)[C@H](Cc2cccc3ccccc23)NC(=O)[C@H]([C@@H](C)O)NC1=O`, the EC50 result in data set [1] is listed as “Not Active”.
On the same count and under the same terms, next, `CC[C@H](C)[C@@H]1NC(=O)[C@@H]2CCCN2C(=O)CNC(=O)[C@@H](CCSC)NC(=O)[C@H](Cc2cnc[nH]2)NC(=O)[C@@H](NC(=O)[C@H](C)NC(=O)[C@H](Cc2ccc(O)cc2)NC(=O)[C@H](CC(C)C)NC(=O)CNC(=O)CNC(C)=O)CSSC[C@@H](C(=O)N[C@@H](CCC(N)=O)C(=O)N2CCC[C@H]2C(=O)N[C@@H](CC(C)C)C(=O)N[C@@H](CCCNC(=N)N)C(=O)N(C)CC(=O)N[C@@H](CCCCN)C(N)=O)NC(=O)[C@H](C(C)C)NC(=O)[C@H](Cc2cccc3ccccc23)NC(=O)[C@H]([C@@H](C)O)NC1=O`: “Not Active”.
Take `CC[C@H](C)[C@@H]1NC(=O)[C@@H]2CCCN2C(=O)CNC(=O)[C@H](CCSC)NC(=O)[C@H](Cc2cnc[nH]2)NC(=O)[C@@H](NC(=O)[C@H](C)NC(=O)[C@H](Cc2ccc(O)cc2)NC(=O)[C@H](CC(C)C)NC(=O)CNC(=O)CNC(C)=O)CSSC[C@@H](C(=O)N[C@@H](CCC(N)=O)C(=O)N2CCC[C@H]2C(=O)N[C@@H](CC(C)C)C(=O)N[C@@H](CCCNC(=N)N)C(=O)N(C)CC(=O)N[C@@H](CCCCN)C(N)=O)NC(=O)[C@H](C(C)C)NC(=O)[C@H](Cc2cccc3ccccc23)NC(=O)[C@H]([C@@H](C)O)NC1=O`: the Activity in data set [2] is 22.6%; in data set [3] it was 24.9 g; in [4], 0.7 ×10¹² /L; in [5] it was 12.5%; in [6], 16.3%; in [7] it was 149.9 g/L. The Activity in data set [9] was found to be 5.11 ×10⁹ /L; in data set [10] it was 9.17 ×10¹² /L. Moreover, the Ratio in [8] was determined as 0.493.
For the compound `CC[C@H](C)[C@@H]1NC(=O)[C@@H]2CCCN2C(=O)CNC(=O)[C@H](CCSC)NC(=O)[C@H](Cc2cnc[nH]2)NC(=O)[C@@H](NC(=O)[C@H](C)NC(=O)[C@@H](Cc2ccc(O)cc2)NC(=O)[C@H](CC(C)C)NC(=O)CNC(=O)CNC(C)=O)CSSC[C@@H](C(=O)N[C@@H](CCC(N)=O)C(=O)N2CCC[C@H]2C(=O)N[C@@H](CC(C)C)C(=O)N[C@@H](CCCNC(=N)N)C(=O)N(C)CC(=O)N[C@@H](CCCCN)C(N)=O)NC(=O)[C@H](C(C)C)NC(=O)[C@H](Cc2cccc3ccccc23)NC(=O)[C@H]([C@@H](C)O)NC1=O`, the EC50 entry in data set [1] is “Not Active”.
On to `CC[C@H](C)[C@@H]1NC(=O)[C@@H]2CCCN2C(=O)CNC(=O)[C@H](CCSC)NC(=O)[C@H](Cc2cnc[nH]2)NC(=O)[C@@H](NC(=O)[C@H](C)NC(=O)[C@H](Cc2ccc(O)cc2)NC(=O)[C@H](CC(C)C)NC(=O)CNC(=O)CNC(C)=O)CSSC[C@@H](C(=O)N[C@@H](CCC(N)=O)C(=O)N2CCC[C@H]2C(=O)N[C@@H](CC(C)C)C(=O)N[C@@H](CCCNC(N)=O)C(=O)N(C)CC(=O)N[C@@H](CCCCN)C(N)=O)NC(=O)[C@H](C(C)C)NC(=O)[C@H](Cc2cccc3ccccc23)NC(=O)[C@H]([C@@H](C)O)NC1=O` (Ac-GGLYACHMGPIT[1Nal]VCQPL[Cit][Sar]K-NH2; disulfide 6-15), for which the Activity in [2] was found to be 21.7%; in [3], 25.5 g; in data set [4], 0.89 ×10¹² /L; in data set [5], 11.7%; in data set [6] it was 16.9%; in data set [7] it was 158.1 g/L. In addition, the Activity in data set [9] is reported as 6.48 ×10⁹ /L; in data set [10], 9.67 ×10¹² /L. Moreover, in [8], the Ratio turned out to be 0.535.
With `CC[C@H](C)[C@@H]1NC(=O)[C@@H]2CCCN2C(=O)CNC(=O)[C@H](CCSC)NC(=O)[C@H](Cc2cnc[nH]2)NC(=O)[C@@H](NC(=O)[C@H](C)NC(=O)[C@H](Cc2ccc(O)cc2)NC(=O)[C@H](CC(C)C)NC(=O)CNC(=O)CNC(C)=O)CSSC[C@@H](C(=O)N[C@@H](CCC(N)=O)C(=O)N(C)[C@@H](C)C(=O)N[C@@H](CC(C)C)C(=O)N[C@@H](CCCNC(=N)N)C(=O)N(C)CC(=O)N[C@@H](CCCCN)C(N)=O)NC(=O)[C@H](C(C)C)NC(=O)[C@H](Cc2cccc3ccccc23)NC(=O)[C@H]([C@@H](C)O)NC1=O` (Ac-GGLYACHMGPIT[1Nal]VCQ[NMeA]LR[Sar]K-NH2; disulfide 6-15), the Activity in [2] came to 19.1%; in [3], 24.7 g; in [4] it was 0.65 ×10¹² /L; in data set [5], 11%; in data set [6], 15.3%; in [7], 146.4 g/L. For the same compound, the Activity in data set [9] is 5.45 ×10⁹ /L; in [10], 9.14 ×10¹² /L. Moreover, the Ratio in data set [8] turned out to be 0.493.
`CC[C@H](C)[C@@H]1NC(=O)[C@H](C)N(C)C(=O)CNC(=O)[C@H](CCSC)NC(=O)[C@H](Cc2cnc[nH]2)NC(=O)[C@@H](NC(=O)[C@H](C)NC(=O)[C@H](Cc2ccc(O)cc2)NC(=O)[C@H](CC(C)C)NC(=O)CNC(=O)CNC(C)=O)CSSC[C@@H](C(=O)N[C@@H](CCC(N)=O)C(=O)N2CCC[C@H]2C(=O)N[C@@H](CC(C)C)C(=O)N[C@@H](CCCNC(=N)N)C(=O)N(C)CC(=O)N[C@@H](CCCCN)C(N)=O)NC(=O)[C@H](C(C)C)NC(=O)[C@H](Cc2cccc3ccccc23)NC(=O)[C@H]([C@@H](C)O)NC1=O` (Ac-GGLYACHMG[NMeA]IT[1Nal]VCQPLR[Sar]K-NH2; disulfide 6-15): the Activity in [2] is 27.2%; in data set [3], 24.7 g; in data set [4], 0.66 ×10¹² /L; in [5], 12.7%; in data set [6], 19.5%; in [7], 144.4 g/L. Further, the Activity stood at 5.64 ×10⁹ /L in [9] and 9.15 ×10¹² /L in data set [10]. Further, in data set [8], the Ratio came to 0.498.
